The source of these data is ChEMBL document CHEMBL6087429, “Synthesis of drimanyl indole fragments of drimentine alkaloids and their antibacterial activities” (2025).

SMILES strings stand for the structures. In brackets after ≈: the same amount, converted by molar mass.

Type in all cases: functional
The test system of assay [1] is Ralstonia solanacearum. Nature of the assay: Antibacterial activity against Ralstonia solanacearum Px1 assessed as inhibition of bacterial growth at 16 ug/ml.
In assay [2] the test system is Ralstonia solanacearum. Nature of the assay: Antibacterial activity against Ralstonia solanacearum Px1 assessed as inhibition of bacterial growth.
Assay [3] concerns Staphylococcus aureus. Briefly: Antibacterial activity against Staphylococcus aureus ATCC 29213 assessed as inhibition of bacterial growth.
Assay [4] relates to Staphylococcus aureus. Nature of the assay: Antibacterial activity against Staphylococcus aureus ATCC 29213 assessed as inhibition of bacterial growth at 16 ug/ml.
The test system of another assay is Pseudomonas aeruginosa. Nature of the assay: Antibacterial activity against Pseudomonas aeruginosa PA14 assessed as inhibition of bacterial growth.
The test system of another assay is Escherichia coli. Briefly: Antibacterial activity against Escherichia coli ATCC 25922 assessed as inhibition of bacterial growth.

A word on the inhibition: it is the percentage by which the read-out fell short of the control. Broadly, the MIC is the lowest concentration found to suppress growth.

Turning to `S=c1[nH]nc(NCNc2n[nH]c(=S)s2)s1`, the inhibition at 16 µg/mL in the assay on Ralstonia solanacearum [1] and in the assay with Staphylococcus aureus [4] was 0% each time. The MIC was found to be 128 µg/mL (≈ 460 µM) in the assay on Ralstonia solanacearum [2] and 256 µg/mL (≈ 919 µM) with Staphylococcus aureus [3].

`Cc1c(C[C@@H]2[C@@]3(C)CCCC(C)(C)[C@@H]3CC[C@@]2(C)O)c2ccccc2n1Cc1ccc(F)cc1`: the “inhibition (INH)” value in the assay with Pseudomonas aeruginosa and in the assay with Escherichia coli was 0% each time. Also, the inhibition at 16 µg/mL in the assay on Ralstonia solanacearum [1] and in the assay with Staphylococcus aureus [4] was 0% each time.

With `Cc1c(C[C@@H]2[C@@]3(C)CCCC(C)(C)[C@@H]3CC[C@@]2(C)O)c2ccccc2n1-c1ccc(F)cc1`, the “inhibition (INH)” value with Pseudomonas aeruginosa and in the assay with Escherichia coli was 0% each time. Further, the inhibition at 16 µg/mL with Ralstonia solanacearum [1] and in the assay on Staphylococcus aureus [4] was 0% throughout.

Consider `C=CCn1c(C)c(C[C@@H]2[C@@]3(C)CCCC(C)(C)[C@@H]3CC[C@@]2(C)O)c2ccccc21`, for which the “inhibition (INH)” value with Pseudomonas aeruginosa and in the assay with Escherichia coli was 0% throughout. Also, the inhibition at 16 µg/mL in the assay with Ralstonia solanacearum [1] and in the assay with Staphylococcus aureus [4] was 0% in each case.

Turning to `Cc1ccc(-n2c(C)c(C[C@@H]3[C@@]4(C)CCCC(C)(C)[C@@H]4CC[C@@]3(C)O)c3ccccc32)cc1`, the “inhibition (INH)” value in the assay with Pseudomonas aeruginosa and in the assay with Escherichia coli was 0% each time. Also, the inhibition at 16 µg/mL in the assay with Ralstonia solanacearum [1] and in the assay on Staphylococcus aureus [4] was 0% throughout.

For the compound `Cc1c2c3ccccc3n1[C@]1(C)CC[C@H]3C(C)(C)CCC[C@]3(C)[C@H]1C2`, the “inhibition (INH)” value in the assay on Pseudomonas aeruginosa and in the assay with Escherichia coli was 0% each time. Further, the inhibition at 16 µg/mL with Ralstonia solanacearum [1] and in the assay with Staphylococcus aureus [4] was 0% each time.

As to `Cc1c(C[C@@H]2[C@@]3(C)CCCC(C)(C)[C@@H]3CC[C@@]2(C)O)c2ccccc2n1-c1ccc(C(F)(F)F)cc1`, the “inhibition (INH)” value in the assay with Pseudomonas aeruginosa and with Escherichia coli was 0% throughout. Moreover, the inhibition at 16 µg/mL in the assay with Ralstonia solanacearum [1] and in the assay with Staphylococcus aureus [4] was 0% throughout.

Consider `Cc1c(C[C@@H]2[C@@]3(C)CCCC(C)(C)[C@@H]3CC[C@@]2(C)O)c2ccccc2n1Cc1ccc(C(F)(F)F)cc1`, for which the “inhibition (INH)” value with Pseudomonas aeruginosa and in the assay on Escherichia coli was 0% throughout. Also, the inhibition at 16 µg/mL in the assay on Ralstonia solanacearum [1] and in the assay with Staphylococcus aureus [4] was 0% throughout.

For the compound `Cc1ccc(Cn2c(C)c(C[C@@H]3[C@@]4(C)CCCC(C)(C)[C@@H]4CC[C@@]3(C)O)c3ccccc32)cc1`, the “inhibition (INH)” value in the assay on Pseudomonas aeruginosa and in the assay on Escherichia coli was 0% each time. Moreover, the inhibition at 16 µg/mL in the assay with Ralstonia solanacearum [1] and in the assay with Staphylococcus aureus [4] was 0% in each case.

`Cc1c(C[C@@H]2[C@@]3(C)CCCC(C)(C)[C@@H]3CC[C@@]2(C)O)c2ccccc2n1-c1ccccc1`: the “inhibition (INH)” value in the assay on Pseudomonas aeruginosa and in the assay with Escherichia coli was 0% throughout. Further, the inhibition at 16 µg/mL in the assay on Ralstonia solanacearum [1] and in the assay on Staphylococcus aureus [4] was 0% throughout.

As to `CCn1c(C)c(C[C@@H]2[C@@]3(C)CCCC(C)(C)[C@@H]3CC[C@@]2(C)O)c2ccccc21`, the “inhibition (INH)” value with Pseudomonas aeruginosa and with Escherichia coli was 0% in each case. For the same compound, the inhibition at 16 µg/mL in the assay with Ralstonia solanacearum [1] and with Staphylococcus aureus [4] was 0% in each case.

For the compound `CC1=C(Cc2c(C)[nH]c3ccccc23)[C@@]2(C)CCCC(C)(C)[C@@H]2CC1`, the “inhibition (INH)” value in the assay on Pseudomonas aeruginosa and with Escherichia coli was 0% throughout. Moreover, the inhibition at 16 µg/mL came to 92% in the assay on Ralstonia solanacearum [1] and 0% in the assay with Staphylococcus aureus [4].

With `Cc1c(C[C@@H]2[C@@]3(C)CCCC(C)(C)[C@@H]3CC[C@@]2(C)O)c2ccccc2n1Cc1ccccc1`, the “inhibition (INH)” value in the assay with Pseudomonas aeruginosa and in the assay with Escherichia coli was 0% throughout. Also, the inhibition at 16 µg/mL with Ralstonia solanacearum [1] and with Staphylococcus aureus [4] was 0% each time.

Consider `Cc1[nH]c2ccccc2c1C[C@@H]1[C@@]2(C)CCCC(C)(C)[C@@H]2CC[C@@]1(C)O`, for which the “inhibition (INH)” value with Pseudomonas aeruginosa and with Escherichia coli was 0% throughout. The inhibition at 16 µg/mL in the assay with Ralstonia solanacearum [1] is > 99%; in the assay with Staphylococcus aureus [4] it was 93%. In addition, the MIC with Ralstonia solanacearum [2] is 8 µg/mL (≈ 22.6 µM).

For the compound `Cc1c(C[C@@H]2[C@@]3(C)CCCC(C)(C)[C@@H]3CC[C@@]2(C)O)c2ccccc2n1C(=O)c1ccccc1`, the “inhibition (INH)” value in the assay on Pseudomonas aeruginosa and in the assay with Escherichia coli was 0% in each case. Also, the inhibition at 16 µg/mL with Ralstonia solanacearum [1] and in the assay with Staphylococcus aureus [4] was 0% each time.

`CC1=CC[C@H]2C(C)(C)CCC[C@]2(C)[C@H]1Cc1c(C)[nH]c2ccccc12`: the “inhibition (INH)” value in the assay on Pseudomonas aeruginosa and in the assay with Escherichia coli was 0% in each case. Besides, the inhibition at 16 µg/mL came out at 95% in the assay on Ralstonia solanacearum [1] and 0% in the assay with Staphylococcus aureus [4].

Turning to `Cc1c(C[C@@H]2[C@@]3(C)CCCC(C)(C)[C@@H]3CC[C@@]2(C)O)c2ccccc2n1C`, the “inhibition (INH)” value in the assay on Pseudomonas aeruginosa and with Escherichia coli was 0% each time. Further, the inhibition at 16 µg/mL in the assay on Ralstonia solanacearum [1] and in the assay with Staphylococcus aureus [4] was 0% in each case.

Take `C=CCCn1c(C)c(C[C@@H]2[C@@]3(C)CCCC(C)(C)[C@@H]3CC[C@@]2(C)O)c2ccccc21`: the “inhibition (INH)” value in the assay with Pseudomonas aeruginosa and in the assay on Escherichia coli was 0% each time. Moreover, the inhibition at 16 µg/mL in the assay with Ralstonia solanacearum [1] and in the assay on Staphylococcus aureus [4] was 0% in each case.

As for `C=C1CC[C@H]2C(C)(C)CCC[C@]2(C)[C@H]1Cc1c(C)[nH]c2ccccc12`, the “inhibition (INH)” value with Pseudomonas aeruginosa and with Escherichia coli was 0% throughout. For the same compound, the inhibition at 16 µg/mL in the assay on Ralstonia solanacearum [1] was > 99%; in the assay with Staphylococcus aureus [4], 0%. In addition, the minimum inhibitory concentration (MIC) in the assay on Ralstonia solanacearum [2] worked out at 16 µg/mL (≈ 47.7 µM).

Turning to `C=C[C@](C)(O)CC[C@@H]1[C@@]2(C)CCCC(C)(C)[C@@H]2CC[C@@]1(C)O` [SCLAREOL], the “inhibition (INH)” value with Pseudomonas aeruginosa and with Escherichia coli was 0% in each case. For the same compound, the inhibition at 16 µg/mL in the assay with Ralstonia solanacearum [1] was 65%; in the assay with Staphylococcus aureus [4] it was > 99%. Besides, the results for the MIC with Ralstonia solanacearum [2] and in the assay on Staphylococcus aureus [3] were 32 µg/mL (≈ 104 µM) and 16 µg/mL (≈ 51.9 µM), respectively.

For `CN[C@H](CC(C)C)C(=O)N[C@H]1C(=O)N[C@@H](CC(N)=O)C(=O)N[C@H]2C(=O)N[C@H]3C(=O)N[C@H](C(=O)N[C@H](C(=O)O)c4cc(O)cc(O)c4-c4cc3ccc4O)[C@H](O)c3ccc(c(Cl)c3)Oc3cc2cc(c3O[C@@H]2O[C@H](CO)[C@@H](O)[C@H](O)[C@H]2O[C@H]2C[C@](C)(N)[C@H](O)[C@H](C)O2)Oc2ccc(cc2Cl)[C@H]1O` [VANCOMYCIN], the inhibition at 16 µg/mL with Ralstonia solanacearum [1] and in the assay on Staphylococcus aureus [4] was > 99% in each case. In addition, in the assay with Ralstonia solanacearum [2], the MIC is < 0.5 µg/mL.
